The source made the active and inactive calls.
Columns and labels:
[1] = biological target: T1, Endoribonuclease toxin MazF (Escherichia coli K-12, UniProt P0AE70); assay: substrate-only fluorescence increase artefacts – biochemical, single-stranded RNase substrate, counter-screen for MazEF activator project, dose response (AID 588502); type: functional
T1 sequence (P0AE70 whole entry): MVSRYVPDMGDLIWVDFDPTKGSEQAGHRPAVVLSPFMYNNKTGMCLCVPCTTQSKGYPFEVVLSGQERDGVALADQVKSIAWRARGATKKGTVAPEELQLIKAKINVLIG

[2] = biological target: T2, Corticotropin-releasing factor receptor 2/Corticotropin-releasing factor-binding protein (Homo sapiens, UniProt P24387+Q13324); assay: activators of CRF receptor 2 with binding protein – uHTS hits, confirmation (AID 602473); type: functional; conditions: read-out: EC50_Mean
T2 sequence (Q13324 whole entry): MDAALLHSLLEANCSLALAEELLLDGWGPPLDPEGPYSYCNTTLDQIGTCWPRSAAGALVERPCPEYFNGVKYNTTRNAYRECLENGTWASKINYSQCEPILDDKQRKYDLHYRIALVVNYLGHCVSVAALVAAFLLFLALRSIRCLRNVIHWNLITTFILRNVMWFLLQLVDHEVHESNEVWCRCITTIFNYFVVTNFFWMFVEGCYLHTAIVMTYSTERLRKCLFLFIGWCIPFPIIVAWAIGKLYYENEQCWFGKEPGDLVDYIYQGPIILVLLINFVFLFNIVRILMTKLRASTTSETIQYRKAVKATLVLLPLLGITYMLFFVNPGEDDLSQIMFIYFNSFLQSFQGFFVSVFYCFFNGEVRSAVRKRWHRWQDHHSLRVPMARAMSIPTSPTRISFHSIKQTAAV
T2 sequence (P24387 whole entry): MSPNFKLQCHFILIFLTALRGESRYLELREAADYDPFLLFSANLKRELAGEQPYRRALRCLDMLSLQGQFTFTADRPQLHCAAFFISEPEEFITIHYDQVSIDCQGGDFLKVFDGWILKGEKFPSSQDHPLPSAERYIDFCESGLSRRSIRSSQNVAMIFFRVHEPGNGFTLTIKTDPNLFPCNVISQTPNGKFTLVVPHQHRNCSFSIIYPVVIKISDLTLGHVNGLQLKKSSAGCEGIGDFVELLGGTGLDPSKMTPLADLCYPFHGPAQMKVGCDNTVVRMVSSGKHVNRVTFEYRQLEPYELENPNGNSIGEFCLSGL

[3] = biological target: T1, Endoribonuclease toxin MazF; assay: activation of MazEF endoribonuclease cleavage – biochemical, fluorescence, single-stranded RNA substrate, uHTS hits, dose response (AID 588481); type: functional
[4] = biological target: T3, Short transient receptor potential channel 4 (Mus musculus, UniProt Q9QUQ5); assay: block of DAMGO-driven TRPC4 calcium entry – cell-based, HEK293 TRPC4/mu-opioid, Fluo-4 calcium, dose response (AID 434942); type: functional;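 also: potency of inhibitors blocking the TRPC4 calcium response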
T3 sequence (Q9QUQ5 whole entry): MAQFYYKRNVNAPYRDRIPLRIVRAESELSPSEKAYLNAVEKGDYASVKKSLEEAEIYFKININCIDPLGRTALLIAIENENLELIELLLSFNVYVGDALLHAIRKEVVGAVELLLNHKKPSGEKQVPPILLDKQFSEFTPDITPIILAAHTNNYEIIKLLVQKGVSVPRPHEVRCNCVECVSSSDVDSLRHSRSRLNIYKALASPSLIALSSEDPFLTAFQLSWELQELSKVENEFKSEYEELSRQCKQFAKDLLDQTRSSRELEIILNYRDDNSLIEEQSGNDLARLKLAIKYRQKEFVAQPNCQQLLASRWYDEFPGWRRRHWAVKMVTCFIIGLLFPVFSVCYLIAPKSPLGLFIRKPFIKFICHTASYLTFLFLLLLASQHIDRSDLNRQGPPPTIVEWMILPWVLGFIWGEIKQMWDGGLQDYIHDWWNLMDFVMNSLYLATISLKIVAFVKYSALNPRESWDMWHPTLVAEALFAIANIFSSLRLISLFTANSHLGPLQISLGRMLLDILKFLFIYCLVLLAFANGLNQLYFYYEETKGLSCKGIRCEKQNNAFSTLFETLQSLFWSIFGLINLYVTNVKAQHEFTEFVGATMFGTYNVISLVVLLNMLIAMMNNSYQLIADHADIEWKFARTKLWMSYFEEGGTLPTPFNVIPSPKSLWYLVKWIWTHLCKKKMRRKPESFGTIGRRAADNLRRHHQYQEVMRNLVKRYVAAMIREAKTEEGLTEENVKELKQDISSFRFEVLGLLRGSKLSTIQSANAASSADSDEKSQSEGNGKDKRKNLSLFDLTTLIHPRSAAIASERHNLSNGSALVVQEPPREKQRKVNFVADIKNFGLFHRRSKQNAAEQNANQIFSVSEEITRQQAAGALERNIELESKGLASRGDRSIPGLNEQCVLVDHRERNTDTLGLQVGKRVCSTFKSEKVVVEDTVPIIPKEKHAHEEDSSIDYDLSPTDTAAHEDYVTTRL

[5] = system: HEK293; assay: EBV LMP1 TES2 canonical NF-kB signalling blockers – cell-based, HEK293, luciferase, cherry-pick, dose response (AID 588343); type: functional; conditions: Homo sapiens
[6] = biological target: T4, Sentrin-specific protease 8 (Homo sapiens, UniProt Q96LD8); type: functional;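 also: luminescence read-out of SENP8 inhibition, dose-response confirmation following an ultra-high-throughput screen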
T4 sequence (Q96LD8 whole entry): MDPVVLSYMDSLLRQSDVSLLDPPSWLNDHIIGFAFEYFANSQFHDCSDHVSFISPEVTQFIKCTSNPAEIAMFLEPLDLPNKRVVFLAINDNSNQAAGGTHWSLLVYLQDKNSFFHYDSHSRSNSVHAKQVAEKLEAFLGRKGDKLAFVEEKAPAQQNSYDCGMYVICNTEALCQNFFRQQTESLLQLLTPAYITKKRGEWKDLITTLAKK

[7] = biological target: T5, Sentrin-specific protease 6 (Homo sapiens, UniProt Q9GZR1); type: functional;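 also: Luminescence-based dose-response confirmatory assay of SENP6 inhibition, following up an ultra-high-throughput screen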
T5 sequence (Q9GZR1 whole entry): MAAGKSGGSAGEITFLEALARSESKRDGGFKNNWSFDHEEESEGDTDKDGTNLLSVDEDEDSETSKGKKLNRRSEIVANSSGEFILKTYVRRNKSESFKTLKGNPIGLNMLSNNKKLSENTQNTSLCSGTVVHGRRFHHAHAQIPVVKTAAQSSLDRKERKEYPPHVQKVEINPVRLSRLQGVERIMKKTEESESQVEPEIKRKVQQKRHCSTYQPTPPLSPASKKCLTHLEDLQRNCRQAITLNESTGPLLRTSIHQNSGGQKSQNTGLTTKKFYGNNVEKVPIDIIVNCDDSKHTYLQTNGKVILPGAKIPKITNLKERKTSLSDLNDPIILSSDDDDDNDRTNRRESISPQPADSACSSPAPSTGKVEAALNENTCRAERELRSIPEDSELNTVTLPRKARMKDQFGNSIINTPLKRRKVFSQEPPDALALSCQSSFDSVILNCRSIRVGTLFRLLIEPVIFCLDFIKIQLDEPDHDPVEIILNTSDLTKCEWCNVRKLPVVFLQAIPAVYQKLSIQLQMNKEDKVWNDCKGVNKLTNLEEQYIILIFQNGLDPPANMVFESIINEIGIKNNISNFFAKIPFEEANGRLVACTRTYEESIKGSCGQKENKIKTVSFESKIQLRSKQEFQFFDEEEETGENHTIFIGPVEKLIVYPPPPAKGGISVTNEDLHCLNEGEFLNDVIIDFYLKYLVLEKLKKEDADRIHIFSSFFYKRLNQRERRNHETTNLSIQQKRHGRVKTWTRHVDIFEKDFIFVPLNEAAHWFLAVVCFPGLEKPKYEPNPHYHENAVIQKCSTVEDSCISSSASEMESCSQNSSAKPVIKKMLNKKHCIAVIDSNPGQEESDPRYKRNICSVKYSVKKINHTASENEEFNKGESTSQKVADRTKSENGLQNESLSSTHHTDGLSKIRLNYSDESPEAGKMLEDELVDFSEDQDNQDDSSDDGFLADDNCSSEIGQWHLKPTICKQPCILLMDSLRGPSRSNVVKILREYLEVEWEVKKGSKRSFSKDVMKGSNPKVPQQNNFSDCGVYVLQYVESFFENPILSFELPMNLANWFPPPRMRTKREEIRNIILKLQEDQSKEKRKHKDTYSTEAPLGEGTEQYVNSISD

[8] = biological target: T6, Sentrin-specific protease 7 (Homo sapiens, UniProt Q9BQF6); type: functional;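 also: Luminescence-based dose-response confirmation of ultra-high-throughput screening hits, measuring inhibition of SENP7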
T6 sequence (Q9BQF6 whole entry): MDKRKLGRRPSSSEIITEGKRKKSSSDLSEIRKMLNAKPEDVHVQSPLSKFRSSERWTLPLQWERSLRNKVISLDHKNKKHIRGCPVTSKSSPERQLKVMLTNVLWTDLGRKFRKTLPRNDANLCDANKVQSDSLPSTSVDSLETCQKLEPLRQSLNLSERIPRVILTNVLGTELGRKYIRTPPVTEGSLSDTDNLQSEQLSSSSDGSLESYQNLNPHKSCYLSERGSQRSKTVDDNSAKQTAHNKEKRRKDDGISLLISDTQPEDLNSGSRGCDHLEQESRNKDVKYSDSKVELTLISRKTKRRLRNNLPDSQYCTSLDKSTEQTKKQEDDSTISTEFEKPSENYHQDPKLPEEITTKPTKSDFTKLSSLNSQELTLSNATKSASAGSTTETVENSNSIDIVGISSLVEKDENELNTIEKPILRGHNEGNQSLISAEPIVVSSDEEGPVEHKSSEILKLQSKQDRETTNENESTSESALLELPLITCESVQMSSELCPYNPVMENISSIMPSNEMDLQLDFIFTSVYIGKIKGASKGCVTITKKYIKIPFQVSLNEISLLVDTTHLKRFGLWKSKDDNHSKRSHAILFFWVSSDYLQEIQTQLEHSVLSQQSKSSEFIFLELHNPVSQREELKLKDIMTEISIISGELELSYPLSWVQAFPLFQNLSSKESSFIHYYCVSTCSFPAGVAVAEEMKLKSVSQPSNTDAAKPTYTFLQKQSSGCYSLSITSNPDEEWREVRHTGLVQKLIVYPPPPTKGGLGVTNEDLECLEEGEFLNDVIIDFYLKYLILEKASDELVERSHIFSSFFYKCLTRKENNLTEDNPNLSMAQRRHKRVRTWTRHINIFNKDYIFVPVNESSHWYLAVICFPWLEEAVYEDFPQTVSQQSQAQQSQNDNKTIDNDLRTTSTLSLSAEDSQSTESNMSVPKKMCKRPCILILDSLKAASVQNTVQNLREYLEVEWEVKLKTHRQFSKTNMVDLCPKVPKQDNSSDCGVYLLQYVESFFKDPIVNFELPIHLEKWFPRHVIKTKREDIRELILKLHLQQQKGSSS

[9] = biological target: T7, Caspase-3 (Homo sapiens, UniProt P42574); type: functional;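 also: Dose-response selectivity test against caspase-3 for candidate inhibitors of sentrin-specific proteases (SENPs)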
T7 sequence (P42574 whole entry): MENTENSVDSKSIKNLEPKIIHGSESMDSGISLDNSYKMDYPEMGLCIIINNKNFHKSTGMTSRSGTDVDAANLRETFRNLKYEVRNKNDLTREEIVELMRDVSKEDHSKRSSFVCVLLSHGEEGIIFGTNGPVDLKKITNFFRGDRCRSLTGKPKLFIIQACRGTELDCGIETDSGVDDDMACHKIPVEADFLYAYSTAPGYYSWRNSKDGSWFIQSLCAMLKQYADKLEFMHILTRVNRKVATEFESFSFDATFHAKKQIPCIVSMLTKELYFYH

[10] = biological target: T8, Oxysterols receptor LXR-beta (Homo sapiens, UniProt P55055); type: functional, cell-based;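 also: agonist activity at LXR measured by a cell-based luminescence readout across a dose range, run as a counterscreen for daf-12 agonists; HEK293 cells with Gal4-LXR fusion and GAL4-driven luciferase reporter; potency for activation of Gal4-LXR reporter so compounds are agonists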
T8 sequence (P55055 whole entry): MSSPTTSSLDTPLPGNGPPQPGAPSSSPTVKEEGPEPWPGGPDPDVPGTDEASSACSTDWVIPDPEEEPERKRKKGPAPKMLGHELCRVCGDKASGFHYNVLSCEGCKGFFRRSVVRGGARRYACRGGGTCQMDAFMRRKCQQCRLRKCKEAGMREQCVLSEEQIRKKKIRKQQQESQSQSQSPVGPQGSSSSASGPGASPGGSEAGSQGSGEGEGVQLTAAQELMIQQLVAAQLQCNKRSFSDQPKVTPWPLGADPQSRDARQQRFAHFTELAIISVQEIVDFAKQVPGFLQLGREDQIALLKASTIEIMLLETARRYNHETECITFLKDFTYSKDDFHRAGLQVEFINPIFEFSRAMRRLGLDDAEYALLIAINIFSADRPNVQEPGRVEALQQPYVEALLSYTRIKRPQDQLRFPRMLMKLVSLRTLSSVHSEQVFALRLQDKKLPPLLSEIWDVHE

SMILES | EC50 [1] | EC50 [3] | IC50 [6] | IC50 [7] | IC50 [8] | IC50 [9] | also measured
CCCNC(=O)Cn1c(=O)/c(=C\c2ccc(-c3cccc([N+](=O)[O-])c3)o2)s/c1=C\C(=O)C(C)(C)C | > 99 µM (inactive) | > 99 µM (inactive) | – | – | – | – | EC50 [2]: > 53 µM (inactive)
CCn1c2ccccc2c2cc(/C=N/NC(=O)c3cc(O)cc(O)c3)ccc21 | – | – | – | – | – | – | EC50 [4]: 0.749 µM (active); AC50 [5]: 8.43 µM (active)
Cc1ccc(CN2CCN(CC(=O)N/N=C/c3ccccc3F)CC2)cc1 | – | – | > 100 µM (inactive) | 27 µM (active) | 14.3 µM (active) | 34.4 µM (active) | –
CCOc1ccc(S(=O)(=O)NN)cc1 | 23.9 µM (inactive) | > 99 µM (inactive) | – | – | – | – | –
Cc1c(C(=O)Nc2ccccc2)csc1-c1ccccc1 | – | – | 7.47 µM (active) | 6.64 µM (active) | 8.96 µM (active) | 19.3 µM (active) | EC50 [10]: > 67.5 µM (inactive)

Reference: ChEMBL document CHEMBL1201862, “PubChem BioAssay data set” (2004)
